From patent publication US20130324412A1, “N-ALKOXYAMIDES OF 6-(SUBSTITUTED PHENYL)-4-AMINOPICOLINATES AND 2-(SUBSTITUTED PHENYL)-6-AMINO-4-PYRIMIDINECARBOXYLATES AND THEIR USE AS SELECTIVE HERBICIDES FOR CROPS” (DOW AGROSCIENCES LLC, priority 2009, published 2013)

Tests used:
Type in all cases: in vivo
corn (Zea mays) = experiment: General postemergence herbicidal activity, corn; settings: post-emergence, 336 h, postemergence, after 14 d, 0 = no injury, 100 = complete kill, read-out: ZEAMX % Visual Injury; for plant injury at 140 g/ha: 140 g ai/ha; for plant injury at 70 g/ha: 70 g ai/ha
Procedure: (§1) Seeds or nutlets of the desired test plant species were planted in Sun Gro MetroMix® 360 planting mixture, which typically has a pH of 6.0 to 6.8 and an organic matter content of about 30 percent, in plastic pots with a surface area of 64 square centimeters (cm^2). When required to ensure good germination and healthy plants, a fungicide treatment and/or other chemical or physical treatment was applied. The plants were grown for 7-21 days (d) in a greenhouse with an approximate 15-hour (h) photoperiod which was maintained at about 23-29° C. during the day and 22-28° C. during the night. Nutrients and water were added on a regular basis and supplemental lighting was provided with overhead metal halide 1000-Watt lamps as necessary. The plants were employed for testing when they reached the first or second true leaf stage.
(§2) A weighed amount, determined by the highest rate to be tested, of each test compound was dissolved in 4 mL of a 97:3 volume per volume (v/v) mixture of acetone and dimethyl sulfoxide (DMSO) to obtain concentrated stock solutions. […] The concentrated stock solutions obtained were diluted with 20 mL of an aqueous mixture containing acetone, water, isopropyl alcohol, DMSO, Atplus 411F crop oil concentrate, and Triton X-155 surfactant in a 48.5:39:10:1.5:1.0:0.02 v/v ratio to obtain spray solutions containing the highest application rates. Additional application rates were obtained by serial dilution of 12 mL of the high rate solution into a solution containing 2 mL of 97:3 v/v mixture of acetone and DMSO and 10 mL of an aqueous mixture containing acetone, water, isopropyl alcohol, DMSO, Atplus 411F crop oil concentrate, and Triton X-155 surfactant in a 48.5:39:10:1.5:1.0:0.02 v/v ratio to obtain ½×, ¼×, ⅛× and 1/16× rates of the high rate. Compound requirements are based upon a 12 mL application volume at a rate of 187 liters per hectare (L/ha). Formulated compounds were applied to the plant material with an overhead Mandel track sprayer equipped with 8002E nozzles calibrated to deliver 187 L/ha over an application area of 0.503 square meters (m^2) at a spray height of 18 inches (43 cm) above the average plant canopy height. Control plants were sprayed in the same manner with the solvent blank.
(§3) The treated plants and control plants were placed in a greenhouse as described above and watered by sub-irrigation to prevent wash-off of the test compounds. After 14 d, the condition of the test plants as compared with that of the untreated plants was determined visually and scored on a scale of 0 to 100 percent where 0 corresponds to no injury and 100 corresponds to complete kill.

[1] = test system: velvetleaf (Abutilon theophrasti); experiment: General postemergence herbicidal activity, velvetleaf; settings: post-emergence, 336 h, postemergence, after 14 d, 0 = no injury, 100 = complete kill, read-out: ABUTH % Visual Injury; for pest or weed control at 140 g/ha: 140 g ai/ha; for pest or weed control at 70 g/ha: 70 g ai/ha
Procedure: as §1, §2, §3

[2] = test system: wild buckwheat (Polygonum convululus); experiment: General postemergence herbicidal activity, wild buckwheat; settings: post-emergence, 336 h, postemergence, after 14 d, 0 = no injury, 100 = complete kill, read-out: POLCO % Visual Injury; for pest or weed control at 140 g/ha: 140 g ai/ha; for pest or weed control at 70 g/ha: 70 g ai/ha
Procedure: as §1, §2, §3

[3] = test system: lambsquarters (Chenopodium album); experiment: General postemergence herbicidal activity, lambsquarters; settings: post-emergence, 336 h, postemergence, after 14 d, 0 = no injury, 100 = complete kill, read-out: CHEAL % Visual Injury; for pest or weed control at 140 g/ha: 140 g ai/ha; for pest or weed control at 70 g/ha: 70 g ai/ha
Procedure: as §1, §2, §3

| Structure (SMILES) | plant injury at 140 g/ha (corn (Zea mays)) [%] | pest or weed control at 140 g/ha [1] [%] | pest or weed control at 140 g/ha [2] [%] | pest or weed control at 140 g/ha [3] [%] | plant injury at 70 g/ha (corn (Zea mays)) [%] | pest or weed control at 70 g/ha [1] [%] | pest or weed control at 70 g/ha [2] [%] | pest or weed control at 70 g/ha [3] [%] | also measured |
| --- | --- | --- | --- | --- | --- | --- | --- | --- | --- |
| COc1c(Cl)ccc(-c2cc(N)c(Cl)c(C(=O)NOC3C=CCCC3)n2)c1F (centres unmarked) [Compound 18, 4-Amino-3-chloro-6-(4-chloro-2-fluoro-3-methoxyphenyl)-N-(cyclohex-2-enyl-oxy)picolinamide] | 5 | 100 | 100 | 100 | – | – | – | – | – |
| C=CCONC(=O)c1nc(Cl)cc(N)c1Cl [Compound 27, N-(2-Propenyloxy)-4-amino-3,6-dichloropicolinamide] | – | – | – | – | – | – | – | – | plant injury at 280 g/ha (corn (Zea mays); 280 g ai/ha): 0%; pest or weed control at 280 g/ha ([1]; 280 g ai/ha): 35%; pest or weed control at 280 g/ha ([2]; 280 g ai/ha): 100%; pest or weed control at 280 g/ha ([3]; 280 g ai/ha): 100% |
| COc1c(Cl)ccc(-c2cc(N)c(Cl)c(C(=O)N3CC=CCO3)n2)c1F [Compound 52, (4-Amino-3-chloro-6-(4-chloro-2-fluoro-3-methoxyphenyl)pyridin-2-yl)(3,6-dihydro-2H-1,2-oxazin-2-yl)methanone] | – | – | – | – | – | – | – | – | plant injury at 35 g/ha (corn (Zea mays); 35 g ai/ha): 20%; pest or weed control at 35 g/ha ([1]; 35 g ai/ha): 100%; pest or weed control at 35 g/ha ([2]; 35 g ai/ha): 100%; pest or weed control at 35 g/ha ([3]; 35 g ai/ha): 90% |
| COc1c(Cl)ccc(-c2cc(N)c(Cl)c(C(=O)NOC(C)C)n2)c1F [Compound 8, 4-Amino-3-chloro-6-(4-chloro-2-fluoro-3-methoxyphenyl)-N-isopropoxypicolinamide] | – | – | – | – | 0 | 100 | 100 | 100 | – |
| COc1c(Cl)ccc(-c2cc(N)c(Cl)c(C(=O)NOC3CCCO3)n2)c1F (centres unmarked) [Compound 17, 4-Amino-3-chloro-6-(4-chloro-2-fluoro-3-methoxyphenyl)-N-(tetrahydrofuran-2-yloxy)picolinamide] | – | – | – | – | 10 | 100 | 100 | 100 | – |
| C#CCONC(=O)c1nc(-c2ccc(Cl)c(OC)c2F)cc(N)c1Cl [Compound 13, 4-Amino-3-chloro-6-(4-chloro-2-fluoro-3-methoxyphenyl)-N-(2-propynyloxy)picolinamide] | – | – | – | – | 0 | 100 | 100 | 100 | – |
| C=C(F)CONC(=O)c1nc(-c2ccc(Cl)c(OC)c2F)cc(N)c1Cl [Compound 37, 4-Amino-3-chloro-6-(4-chloro-2-fluoro-3-methoxyphenyl)-N-(2-fluoro-2-propenyl-oxy)picolinamide] | – | – | – | – | – | – | – | – | plant injury at 17.5 g/ha (corn (Zea mays); 17.5 g ai/ha): 25%; pest or weed control at 17.5 g/ha ([1]; 17.5 g ai/ha): 100%; pest or weed control at 17.5 g/ha ([2]; 17.5 g ai/ha): 100%; pest or weed control at 17.5 g/ha ([3]; 17.5 g ai/ha): 100% |
| COc1c(Cl)ccc(-c2cc(N)c(Cl)c(C(=O)NOCc3ccoc3)n2)c1F [Compound 43, 4-Amino-3-chloro-6-(4-chloro-2-fluoro-3-methoxyphenyl)-N-(furan-3-yl-methoxy)picolinamide] | 30 | 95 | 100 | 100 | – | – | – | – | – |
| C=CC(C)ONC(=O)c1nc(-c2ccc(Cl)c(OC)c2F)cc(N)c1Cl (centres unmarked) [Compound 33, 4-Amino-N-(but-3-en-2-yloxy)-3-chloro-6-(4-chloro-2-fluoro-3-methoxy-phenyl)picolinamide] | – | – | – | – | 10 | 100 | 100 | 100 | – |
| CC/C=C/CONC(=O)c1nc(-c2ccc(Cl)c(OC)c2F)cc(N)c1Cl [Compound 45, (E)-4-Amino-3-chloro-6-(4-chloro-2-fluoro-3-methoxyphenyl)-N-(2-pentenyl-oxy)picolinamide] | 30 | 100 | 100 | 100 | – | – | – | – | – |
| COc1c(Cl)ccc(-c2cc(N)c(Cl)c(C(=O)N3CCCO3)n2)c1F [Compound 40, (4-Amino-3-chloro-6-(4-chloro-2-fluoro-3-methoxyphenyl)pyridin-2-yl)(isoxazolidin-2-yl)methanone] | 20 | 95 | 100 | 100 | – | – | – | – | – |
